Data taken from US5965088A, “Method for providing rapid disinfection of contact lenses” (priority 1997, dated 1999).
Like-named read-outs stand apart in the source and are kept apart here.

System: Pseudomonas aeruginosa (ATCC 9027)
Experiment: Antimicrobial efficacy (stand-alone log reduction), P. aeruginosa
Assay type: cell-based
Conditions: for log reduction at 4 µg/mL: 4.0 ppm alexidine in ReNu MPS
Protocol: This Example illustrates the microbiocidal efficacy of solutions according to the present invention. The antimicrobial efficacy of each of various compositions for the chemical disinfection of contact lenses was evaluated. Microbial challenge inoculums were prepared using Pseudomonas aeruginosa (ATCC 9027), Staphylococcus aureus (ATCC 6538), Serratia marcescens (ATCC 13880), Candida albicans (ATCC 10231), and Fusarium solani (ATCC 36031). The test organisms were cultured on appropriate agar and the cultures were harvested using sterile DPBST (Dulbecco's Phosphate Buffered Saline plus 0.05% w/v polysorbate 80) or a suitable diluent and transferred to a suitable vessel. Spore suspensions were filtered through sterile glass wool to remove hyphal fragments. Serratia marcescens, as appropriate, was filtered (eg., through a 1.2 μ filter) to clarify the suspension. After harvesting, the suspension was centrifuged at no more than 5000× g for a maximum of 30 minutes at 20-25° C. The supernatant was poured off and resuspended in DPBST or other suitable diluent. The suspension was centrifuged a second time, and resuspended in DPBST or other suitable diluent. All challenge bacterial and fungal cell suspensions were adjusted with DPBST or other suitable diluent to 1×10^7 -10^8 cfu/mL. The appropriate cell concentration may be estimated by measuring the turbidity of the suspension, for example using a spectrophotometer at a preselected wavelength, for example 490 nm. One tube was prepared containing a minimum of 10 mL of test solution per challenge organism. Each tube of the solution to be tested was inoculated with a suspension of the test organism sufficient to provide a final count of 1.0×10^5 -10^6 cfu/mL, the volume of the inoculum not exceeding 1% of the sample volume. Dispersion of the inoculum was ensured by vortexing the sample for at least 15 seconds. The inoculated product was stored at 10-25° C. Aliquots in the amount of 1.0 mL were taken of the inoculated product for determination of viable counts after certain time periods of disinfection. The time points for the bacteria were 25, 50, 75, and 100% of the minimum disinfection time. Yeast and mold were tested at an additional timepoint of at least 400% of the minimum disinfection time. The suspension was mixed well by vortexing vigorously for at least 5 second. The 1.0 mL aliquots removed at the specified time intervals were subjected to a suitable series of decimal dilutions in validated neutralizing media. The suspensions were mixed vigorously and incubated for a suitable period of time to allow for neutralization of the microbial agent. The viable count of organisms was determined in appropriate dilutions by preparation of triplicate plates of trypticase soy (TSA) agar for bacteria and Sabouraud dextrose agar (SDA) for mold and yeast. The bacterial recovery plates were incubated at 30-35° C. for 2-4 days. The yeast was incubated at 20-30° C. for 2-4 days and mold recovery plates at 20-25° C. for 3-7 days. The average number of colony forming units was determined on countable plates. Countable plates refer to 30-300 cfu/plates for bacteria and yeast, and 8 to 80 cfu/plate for mold except when colonies are observed only for the 10^0 or 10^-1 dilution plates. The microbial reduction was then calculated at the specified time points. […] Following inoculation in a validated neutralizing broth and incubation for an appropriate period of time, the inoculum control must be between 1.0×10^5 -1.0×10^6 cfu/mL
The solutions were evaluated based on the performance requirement referred to as the "Stand-Alone Procedure for Disinfecting Products" (hereafter the "stand-alone test") and is based on the Disinfection Efficacy Testing for contact lens care products under the Draft Premarket Notification (510(k)) Guidance Document For Contact Lens Care Products dated Apr. 1, 1996, prepared by the U.S. Food and Drug Administration, Division of Ophthalmic Devices. […]

CCCCC(CC)CNC(=N)NC(=N)NCCCCCCNC(=N)NC(=N)NCC(CC)CCCC.Cl.Cl (stereo not shown) [Alexidine.2HCl, 1,1 '-hexamethylenebis(5-(2-ethylhexyl)-biguanide) dihydrochloride]
log reduction at 4 ppm (ATCC9027, 2.5 min, 4.0 ppm, aged 18 months, Exp. 1, 2.5 min, read-out: Log Reduction): 2.4
log reduction at 4 ppm (ATCC9027, 2.5 min, 4.0 ppm, aged 18 months, Exp. 2, 2.5 min, read-out: Log Reduction): 1.9
log reduction at 4 ppm (ATCC9027, 2.5 min, 4.0 ppm, aged 18 months, Exp. 3, 2.5 min, read-out: Log Reduction): 2.7
log reduction at 1 ppm (ATCC9027, 5 min, 1.0 ppm, read-out: Log Reduction at 5 Minutes): 0.5
log reduction at 2 ppm (ATCC9027, 5 min, 2.0 ppm, read-out: Log Reduction at 5 Minutes): 3
log reduction at 3 ppm (ATCC9027, 5 min, 3.0 ppm, read-out: Log Reduction at 5 Minutes): 3.8
log reduction at 4 ppm (ATCC9027, 5 min, 4.0 ppm, aged 18 months, Exp. 1, 5.0 min, read-out: Log Reduction): 3.2
log reduction at 4 ppm (ATCC9027, 5 min, 4.0 ppm, aged 18 months, Exp. 2, 5.0 min, read-out: Log Reduction): 3.2
log reduction at 4 ppm (ATCC9027, 5 min, 4.0 ppm, aged 18 months, Exp. 3, 5.0 min, read-out: Log Reduction): 3.1
log reduction at 4 ppm (ATCC9027, 5 min, 4.0 ppm, read-out: Log Reduction at 5 Minutes): 3.7
log reduction at 5 ppm (ATCC9027, 5 min, 5.0 ppm, read-out: Log Reduction at 5 Minutes): > 5
log reduction at 4 ppm (ATCC9027, 0.125 h, 4.0 ppm, aged 18 months, Exp. 1, 7.5 min, read-out: Log Reduction): 3.4
log reduction at 4 ppm (ATCC9027, 0.125 h, 4.0 ppm, aged 18 months, Exp. 2, 7.5 min, read-out: Log Reduction): 3.8
log reduction at 4 ppm (ATCC9027, 0.125 h, 4.0 ppm, aged 18 months, Exp. 3, 7.5 min, read-out: Log Reduction): 4.1
log reduction at 1 ppm (ATCC9027, 10 min, 1.0 ppm, read-out: Log Reduction at 10 Minutes): 3.2
log reduction at 2 ppm (ATCC9027, 10 min, 2.0 ppm, read-out: Log Reduction at 10 Minutes): 4.3
log reduction at 3 ppm (ATCC9027, 10 min, 3.0 ppm, read-out: Log Reduction at 10 Minutes): > 5
log reduction at 4 ppm (ATCC9027, 10 min, 4.0 ppm, aged 18 months, Exp. 1, 10.0 min, read-out: Log Reduction): > 4.8
log reduction at 4 ppm (ATCC9027, 10 min, 4.0 ppm, aged 18 months, Exp. 2, 10.0 min, read-out: Log Reduction): > 4.8
log reduction at 4 ppm (ATCC9027, 10 min, 4.0 ppm, aged 18 months, Exp. 3, 10.0 min, read-out: Log Reduction): 4.9
log reduction at 4 ppm (ATCC9027, 10 min, 4.0 ppm, read-out: Log Reduction at 10 Minutes): > 5
log reduction at 5 ppm (ATCC9027, 10 min, 5.0 ppm, read-out: Log Reduction at 10 Minutes): > 5
log reduction at 4 ppm (ATCC9027, 0.25 h): 4
log reduction at 4 ppm (ATCC9027, 0.25 h, 4.0 ppm, Ex. 7, different lot aged 18 months, 15 min, read-out: Log Reduction): 4.2
log reduction at 4 ppm (ATCC9027, 0.25 h, 4.0 ppm, Ex. 8, different batch aged 19 months at 25 °C, 15 min, read-out: Log Reduction): 3.3
log reduction at 4 ppm (ATCC9027, 0.5 h, 4.0 ppm, Ex. 6, aged 19 months at 25 °C, 30 min, read-out: Log Reduction): > 4.8
log reduction at 4 ppm (ATCC9027, 0.5 h, 4.0 ppm, Ex. 7, different lot aged 18 months, 30 min, read-out: Log Reduction): > 4.8
log reduction at 4 ppm (ATCC9027, 0.5 h, 4.0 ppm, Ex. 8, different batch aged 19 months at 25 °C, 30 min, read-out: Log Reduction): > 4.8
log reduction at 4 ppm (ATCC9027, 0.75 h, 4.0 ppm, Ex. 6, aged 19 months at 25 °C, 45 min, read-out: Log Reduction): > 4.8
log reduction at 4 ppm (ATCC9027, 0.75 h, 4.0 ppm, Ex. 7, different lot aged 18 months, 45 min, read-out: Log Reduction): > 4.8
log reduction at 4 ppm (ATCC9027, 0.75 h, 4.0 ppm, Ex. 8, different batch aged 19 months at 25 °C, 45 min, read-out: Log Reduction): > 4.8
log reduction at 1 ppm (ATCC9027, 1 h, 1 ppm, 1 hr, read-out: Log Reduction): > 5
log reduction at 2 ppm (ATCC9027, 1 h, 2 ppm, 1 hr, read-out: Log Reduction): > 5
log reduction at 3 ppm (ATCC9027, 1 h, 3 ppm, 1 hr, read-out: Log Reduction): > 5
log reduction at 4 µg/mL (ATCC9027, 1 h, 1 hr): > 4.8
log reduction at 4 ppm (ATCC9027, 1 h, 4 ppm, 1 hr, read-out: Log Reduction): > 5
log reduction at 4 ppm (ATCC9027, 1 h, 4.0 ppm, Ex. 6, aged 19 months at 25 °C, 60 min, read-out: Log Reduction): > 4.8
log reduction at 4 ppm (ATCC9027, 1 h, 4.0 ppm, Ex. 7, different lot aged 18 months, 60 min, read-out: Log Reduction): > 4.8
log reduction at 4 ppm (ATCC9027, 1 h, 4.0 ppm, Ex. 8, different batch aged 19 months at 25 °C, 60 min, read-out: Log Reduction): > 4.8
log reduction at 5 ppm (ATCC9027, 1 h, 5 ppm, 1 hr, read-out: Log Reduction): > 5
log reduction at 4 µg/mL (ATCC9027, 2 h, 2 hr): > 4.8
log reduction at 4 µg/mL (ATCC9027, 3 h, 3 hr): > 4.8
log reduction at 4 µg/mL (ATCC9027, 4 h, 4 hr): > 4.8
